Read-outs that look alike come from different tables or passages of the source.
How the values were obtained:
[1] = system: chronic non A non B hepatitis; experiment: Chronic non A non B hepatitis, 15/30/60 mg/day, 12 weeks (Table 5B); format: in vivo, human patients
Procedure: (§1) Search on utility or effectiveness of the organogermanium compound on patients who are infected with chronic B hepatitis, or with non A non B hepatitis, and show "positive" to HBe antigen as well as a preferable amount of dose thereof.
(§2) The amount of dose has been set as follows, by taking the results given in In Vivo Utilization Example 1 into consideration.
(a) 60 mg/day/body showing most preferable data in effectiveness,
(b) 30 mg/day/body showing effectiveness in some Experiments, and
(c) 15 mg/day/body (for taking control data).
(§3) Experimental period of time was set for 12 weeks.
(§4) (a) Examination of liver functions (GOT, GPT, total bilirubin, LDH, y-GTP, and y-globulin), and
(§5) (b) Examination with use of HBV marker (HBe-Ag).

[2] = system: HIV (Human Immunodeficiency Virus); format: in vivo; settings: for OKT4/8 ratio: before 0.36±0.03; for OKT4-value: before 463±64/μl
Procedure: Effects of the organogermanium compound are checked by giving the capsule obtained in Pharmaceutical Composition Preparing Example 7 to 6 patients infected by HIV (Human Immunodeficiency Virus), who are male hemophiliacs (Age: 6 to 22 years old) recognized as asymptomatic carriers, and among them 5 patients were positive to HIV and 1 patient was negative to HIV.
To each patient, the capsule was given in a dose of 80 mg/day for the patients of 10 years old or over and 40 mg/1 day for the patients less than 10 years old, for 9 months. The number of blood lymphocytes, OKT4 -value, OKT8 -value and OKT4/8 ratio, as well as the change in the virus marker (HIV, HIV antigen and HIV antibody) in blood of the patients were monitored. The separation of the HIV was carried out in accordance with the CDC (Communicable Disease Center) method, and the measurement of the HIV antigen was carried out using the Western blotting method.

[3] = set-up: species or system human; settings: in vivo
Procedure: A capsule containing various amount of effective organogermanium compound were dosed to each of healthy adult persons to check kinetics of the drug. […] The excretion ratio of the drug in urine was 30-50% in cases of any dose.
Therefore, it has been judged that the influence of the hepatitis on pharmakinetics of the drug is small.

[4] = system: spleen cells (PFC), SRBC sensitized mice; experiment: Antibody production ability in normal mouse (spleen cell PFC); format: in vivo, ICR mice; settings: 0.1, 1.0 and 10 mg/kg oral
Procedure: To each group of ICR mice (age, 5 weeks), 2×10^8 and 2 ×10^7 of sheep red blood corpuscles (SRBC), as an […], were venously injected for sensitization in a tail vein of the mice. Then, immediately, the organogermanium compound dissolved in 4% cattle serum albumin solution was orally dosed to the sensitized mice in an amount of 0.1, 1.0 and 10 mg/kg, respectively. After 4 days from the sensitization, spleen cells were extracted to measure the number of PFC therein, which was used as an index of the antibody productivity.

[5] = system: chronic B hepatitis; format: in vivo, human patients
Procedure: as §1, §2
(a) 30 mg/day/body showing most preferable data in effectiveness, and
(b) 15 mg/day/body (half amount).
as §3, §4, §5

[6] = system: chronic B hepatitis; format: in vivo, human patients; remark: listed apart in the source
Procedure: Search on effectiveness of the organogermanium compound to chronic B and non A non B hepatitises and preferable amount of dose thereof.
Therefore, 30 mg, 60 mg and 90 mg/day/body were set. Experimental period of time was set for 12 weeks.
(a) Examination of liver functions (GOT, GPT, A 1-P, and γ-GTP), and
(b) Examination with use of HBV markers (HBe-Ag, HBe-Ab and DNA-P).

For “3-oxygermylpropionic acid [Compound No. 1]”, the “Effectiveness (slight or more)” value ([1]; 15 mg/day) was 33%, the “General judgement: Improvement (slight or more)” value (“General judgement: Improvement” below) ([1]; 15 mg/day) was 36% and the “Safety (quite)” value ([1]; 15 mg/day) was 91%. For the same substance, the Side effect ([1]; 15 mg/day) was 9.4%, the Total bilirubin change ([1]; 15 mg/day, 12 weeks) was “.dwnarw. *” and the γ-GPT change ([1]; 15 mg/day, 12 weeks) was “.dwnarw. +”. The “Effectiveness (slight or more)” value ([1]; 30 mg/day) was 36%, the “General judgement: Improvement” value ([1]; 30 mg/day) was 37% and the “Safety (quite)” value ([1]; 30 mg/day) was 94%. For the same substance, the Side effect ([1]; 30 mg/day) was 5.6%, the “Effectiveness (slight or more)” value ([1]; 60 mg/day) was 55% and the “General judgement: Improvement” value ([1]; 60 mg/day) was 57%. For the same substance, the “Safety (quite)” value ([1]; 60 mg/day) was 95%, the Side effect ([1]; 60 mg/day) was 5.4% and the GOT change ([1]; 60 mg/day, 12 weeks) was “.dwnarw. *”. For the same substance, the GPT change ([1]; 60 mg/day, 12 weeks) was “.dwnarw. **”, the Total bilirubin change ([1]; 60 mg/day, 12 weeks) was “.dwnarw. *” and the γ-GPT change ([1]; 60 mg/day, 12 weeks) was “.dwnarw. *”. The γ-Globulin change ([1]; 60 mg/day, 12 weeks) was “.dwnarw. *”, the “side-effect in clinical observation” value ([2]; 9 months) was “did not show any side-effect” and the OKT4/8 ratio ([2]; after 1 month) was 0.42±0.02. It also gave an OKT4-value ([2]; after 2 months) of 549 ± 89 µL⁻¹, an OKT4/8 ratio ([2]; after 3 months) of 0.51±0.06 and an OKT4/8 ratio ([2]; after 6 months) of 0.54±0.05. The OKT4-value ([2]; after 6 months) was 629 ± 97 µL⁻¹, the OKT8-value ([2]; after 6 months, before 1303±174/μl) was 1154 ± 153 µL⁻¹ and the number of lymphocytes ([2]; after 6 months, before 2430±311/μl) was 2349 ± 312 µL⁻¹. The “HIV disappeared (persons)” value ([2]; among 5 HIV positive patients, dosage over 6 months) was 3 persons, the “no change in virus marker (persons)” value ([2]; among 5 HIV positive patients, over 9 months) was 2 persons and the “change in OKT4-value” ([2]; human, in vivo) was “a certain increasing tendency”. The “change in OKT4/8 ratio” value ([2]; human, in vivo) was “a slow increase in the ratio”, the “change in OKT8-value” ([2]; human, in vivo) was “a certain decreasing tendency” and the “change in number of lymphocytes” value ([2]; human, in vivo) was “No noticeable change”. The “some increase in appetite and body weight (persons)” value ([2]; human, in vivo) was 2 persons, the “excretion ratio of the drug in urine” value ([3]; human, po) was 30-50% and the “time to maximum plasma concentration” value ([3]; human, po) was 3 h. The AUC versus dose [3] was “AUC increases as the amount of dose increases”, the “AUC, Cmax and excretion ratio in urine, hepatitis patients versus healthy persons” value [3] was “tended to increase” and the “plasma concentration on first day versus 7th day” value [3] was “same level”. The tendency to accumulate [3] was “does not show a tendency to accumulate”, the “spleen cell PFC” value ([4]; SRBC 2×10^7, FIG. 8b) was “increase it” and the “spleen cell PFC” value ([4]; SRBC 2×10^8, FIG. 8a) was “tendancy to decrease spleen cell PFC”. For the same substance, the “Effectiveness (slight or more)” value ([5]; 15 mg/day) was 38%, the “General judgement: Improvement” value ([5]; 15 mg/day) was 36% and the “Effectiveness (slight or more)” value ([5]; 30 mg/day) was 60%. For the same substance, the “General judgement: Improvement” value ([5]; 30 mg/day) was 62%, the GOT change ([5]; 30 mg/day, 12 weeks) was “.dwnarw. ***” and the GPT change ([5]; 30 mg/day, 12 weeks) was “.dwnarw. ***”. The “HBe-Ag (log conversion) change” value ([5]; 30 mg/day, 12 weeks) was “.dwnarw. +”, the LDH change ([5]; 30 mg/day, 12 weeks) was “.dwnarw. *” and the “Effectiveness (slight or more)” value ([6]; 30 mg/day) was 55%. For the same substance, the “General judgement: Improvement” value ([6]; 30 mg/day) was 52%, the “HBV markers: Improvement (slight or more)” value (from here on “HBV markers: Improvement”) ([6]; 30 mg/day) was 36% and the “A 1-P change” value ([6]; 30 mg/day, 12 weeks) was “.dwnarw. *”. The DNA-P change ([6]; 30 mg/day, 12 weeks) was “.dwnarw. +”, the GOT change ([6]; 30 mg/day, 12 weeks) was “.dwnarw. *” and the GPT change ([6]; 30 mg/day, 12 weeks) was “.dwnarw. +”. The HBe-Ab change ([6]; 30 mg/day, 12 weeks) was “.uparw. *”, the “HBe-Ag (log conversion) change” value ([6]; 30 mg/day, 12 weeks) was “.dwnarw. **” and the γ-GTP change ([6]; 30 mg/day, 12 weeks) was “.dwnarw. *”. The “Effectiveness (slight or more)” value ([6]; 60 mg/day) was 47%, the “General judgement: Improvement” value ([6]; 60 mg/day) was 37% and the “HBV markers: Improvement” value ([6]; 60 mg/day) was 27%. The HBe-Ab change ([6]; 60 mg/day, 12 weeks) was “.uparw. +”, the “Effectiveness (slight or more)” value ([6]; 90 mg/day) was 47% and the “General judgement: Improvement” value ([6]; 90 mg/day) was 43%. The “HBV markers: Improvement” value ([6]; 90 mg/day) was 15% and the HBe-Ab change ([6]; 90 mg/day, 12 weeks) was “.uparw. **”.
